Test results as given in PubChem BioAssay (NCI).
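Following 48 hours of exposure in 96-well plates, responses at five concentrations were used to interpolate endpoints linearly. GI50 marks 50% less growth. TGI: total growth inhibition.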

Tests used:
Experiment in all cases: NCI tumour cell line growth inhibition, 48 h
[1] = system: 786-0 renal
[2] = system: A498 renal
[3] = system: A549 NSCLC
[4] = system: ACHN renal
[5] = system: BT-549 breast
[6] = system: CAKI-1 renal
[7] = system: CCRF-CEM leukemia
[8] = system: COLO 205 colon
[9] = system: DU-145 prostate
[10] = system: EKVX NSCLC
[11] = system: HCC-2998 colon
[12] = system: HCT-116 colon
[13] = system: HCT-15 colon
[14] = system: HL-60(TB) leukemia
[15] = system: HOP-62 NSCLC
[16] = system: HOP-92 NSCLC
[17] = system: HS 578T breast
[18] = system: HT29 colon
[19] = system: IGROV1 ovarian
[20] = system: K-562 leukemia
[21] = system: KM12 colon
[22] = system: M14 melanoma
[23] = system: MALME-3M melanoma
[24] = system: MCF7 breast
[25] = system: MDA-MB-231 breast
[26] = system: MDA-MB-435
[27] = system: MOLT-4 leukemia
[28] = system: NCI-H226 lung
[29] = system: NCI-H23 lung
[30] = system: NCI-H460 lung
[31] = system: NCI-H522 lung
[32] = system: NCI/ADR-RES ovarian
[33] = system: OVCAR-3 ovarian
[34] = system: OVCAR-4 ovarian
[35] = system: OVCAR-5 ovarian
[36] = system: OVCAR-8 ovarian
[37] = system: PC-3 prostate
[38] = system: RPMI-8226 leukemia
[39] = system: RXF 393 renal
[40] = system: SF-268 CNS
[41] = system: SF-295 CNS
[42] = system: SF-539 CNS
[43] = system: SK-MEL-2 melanoma
[44] = system: SK-MEL-28 melanoma
[45] = system: SK-MEL-5 melanoma
[46] = system: SK-OV-3 ovarian
[47] = system: SN12C renal
[48] = system: SNB-19 CNS
[49] = system: SNB-75 CNS
[50] = system: SR leukemia
[51] = system: SW-620 colon
[52] = system: T-47D breast
[53] = system: TK-10 renal
[54] = system: U251 CNS
[55] = system: UACC-257 melanoma
[56] = system: UACC-62 melanoma
[57] = system: UO-31 renal

NS(=O)(=O)c1ccc(Nc2nc(Nc3ccccc3)nc(-n3nc(-c4ccccc4)cc3-c3ccccc3)n2)cc1
GI50 [1]: 3.09 µM | TGI [1]: 10.6 µM | GI50 [2]: 3.34 µM | TGI [2]: 8.08 µM | GI50 [3]: 3.18 µM | TGI [3]: 17.9 µM | GI50 [4]: 2.59 µM | TGI [4]: 9.95 µM | GI50 [5]: 2.24 µM | TGI [5]: 5.54 µM | GI50 [6]: 2.45 µM | TGI [6]: 9.55 µM | GI50 [7]: 2.94 µM | TGI [7]: > 100 µM | GI50 [8]: 1.78 µM | TGI [8]: 3.27 µM | GI50 [9]: 3.16 µM | TGI [9]: 13 µM | GI50 [10]: 2.96 µM | TGI [10]: 17.4 µM | GI50 [11]: 2.98 µM | TGI [11]: 6.84 µM | GI50 [12]: 1.74 µM | TGI [12]: 3.39 µM | GI50 [13]: 3.08 µM | TGI [13]: 11.2 µM | GI50 [14]: 2.24 µM | TGI [14]: 8.26 µM | GI50 [15]: 3.29 µM | TGI [15]: 12.4 µM | GI50 [16]: 2.16 µM | TGI [16]: 6.18 µM | GI50 [17]: 4.31 µM | TGI [17]: 62.7 µM | GI50 [18]: 2.38 µM | TGI [18]: 5.48 µM | GI50 [19]: 2.72 µM | TGI [19]: 11.4 µM | GI50 [20]: 2.62 µM | TGI [20]: 10.8 µM | GI50 [21]: 2.77 µM | TGI [21]: 8.2 µM | GI50 [22]: 3.22 µM | TGI [22]: 12.5 µM | GI50 [23]: 2.43 µM | TGI [23]: 7.09 µM | GI50 [24]: 2.27 µM | TGI [24]: 6.61 µM | GI50 [25]: 1.81 µM | TGI [25]: 3.85 µM | GI50 [26]: 3.32 µM | TGI [26]: 12.9 µM | GI50 [27]: 1.51 µM | TGI [27]: 6.47 µM | GI50 [28]: 2.52 µM | TGI [28]: 11 µM | GI50 [29]: 2.84 µM | TGI [29]: 9.12 µM | GI50 [30]: 2.07 µM | TGI [30]: 4.66 µM | GI50 [31]: 2.29 µM | TGI [31]: 7.39 µM | GI50 [32]: 2.93 µM | TGI [32]: 11 µM | GI50 [33]: 2.24 µM | TGI [33]: 4.97 µM | GI50 [34]: 2.77 µM | TGI [34]: 9.32 µM | GI50 [35]: 3.34 µM | TGI [35]: 14.3 µM | GI50 [36]: 3.22 µM | TGI [36]: 16 µM | GI50 [37]: 2.37 µM | TGI [37]: 7.89 µM | GI50 [38]: 2.49 µM | TGI [38]: 8.69 µM | GI50 [39]: 1.99 µM | TGI [39]: 5.23 µM | GI50 [40]: 3.97 µM | TGI [40]: > 100 µM | GI50 [41]: 3.02 µM | TGI [41]: 10.5 µM | GI50 [42]: 2.66 µM | TGI [42]: 10.3 µM | GI50 [43]: 2.39 µM | TGI [43]: 6.95 µM | GI50 [44]: 3.87 µM | TGI [44]: 16.9 µM | GI50 [45]: 2.33 µM | TGI [45]: 5.54 µM | GI50 [46]: 5.37 µM | TGI [46]: > 100 µM | GI50 [47]: 1.47 µM | TGI [47]: 2.88 µM | GI50 [48]: 3.43 µM | TGI [48]: 20.9 µM | GI50 [49]: 4.61 µM | TGI [49]: > 100 µM | GI50 [50]: 1.94 µM | TGI [50]: 5.94 µM | GI50 [51]: 3.52 µM | TGI [51]: 32.1 µM | GI50 [52]: 2.96 µM | TGI [52]: 13.2 µM | GI50 [53]: 3.87 µM | TGI [53]: 8.93 µM | GI50 [54]: 2.91 µM | TGI [54]: 10.3 µM | GI50 [55]: 3.26 µM | TGI [55]: 23.3 µM | GI50 [56]: 1.81 µM | TGI [56]: 3.76 µM | GI50 [57]: 2.38 µM | TGI [57]: 10 µM
